Experimental data from patent US20220304978A1, “INHIBITING MESANGIAL CELL ACTIVATION” (Chinook Therapeutics, Inc., priority 2019, published 2022).

Test system: kidney tissue of g-ddY mice
Experiment: RNA-seq differential gene expression in kidney tissue of g-ddY mice
Format: in vivo, mouse
Protocol: RNA isolation and sequencing libraries were generated using standard protocols. Sequencing was performed using an Illumina NextSeq500 using manufacturer's instructions with a read length of 75 bp and a read depth of 30 million. Raw data was assembled to FASTQ files. Following QC analysis, high quality sequencing reads (e.g., reads with a Phred quality score >36) were aligned to the mouse reference genome (GRCm38-mm10) using the default parameters of the align algorithm and transcript count tables of each library was generated using the default parameters of the featureCounts algorithm of the RSubread package (Liao Y, Smyth GK, Shi W, 2019). High quality sequencing reads mapped to 27,129 genes. Following additional QC of low count filtering (i.e. transcripts <10 counts across all samples), 16,207 genes were identified and used for further analysis. The remaining sequencing read counts of the included 16,207 genes were normalized to library size, log-transformed, and were quantified as counts per million (CPM). Select RNA-seq counts were validated using qPCR. Sequencing read counts (CPM) were used for identification of differential gene expression between specified populations using the quasi-likelihood methodology of the edgeR package. […] MA plots were generated using edgeR. Heatmaps and other plots were generated using the gplots and ggplot2 package.

[1] = 10 mg/kg/day vs control, IL6 signaling
[2] = 10 mg/kg/day vs control, NF-kB signaling
[3] = 10 mg/kg/day vs control, PDGF signaling
[4] = 10 mg/kg/day vs control, cell proliferation signaling
[5] = 10 mg/kg/day vs control, inflammatory response signaling
[6] = 10 mg/kg/day vs control, mesangial cell signature
[7] = 20 mg/kg/day vs control, IL6 signaling
[8] = 20 mg/kg/day vs control, NF-kB signaling
[9] = 20 mg/kg/day vs control, PDGF signaling
[10] = 20 mg/kg/day vs control, cell proliferation signaling

Question: Which results are given for `CCCCN(CCCC)C(=O)CN1C[C@H](c2ccc3c(c2)OCO3)[C@@H](C(=O)O)[C@@H]1c1ccc(OC)cc1` [atrasentan, (2R,3R,4S)-4-(1,3-benzodioxol-5-yl)-1-[2-(dibutylamino)-2-oxoethyl]-2-(4-methoxyphenyl)pyrrolidine-3-carboxylic acid]?
Answer: Cntfr logFC [1]: −0.8669; Csf1 logFC [1]: −0.8332; Il1b logFC [1]: −1.684; Il1r1 logFC [1]: −0.2988; Il2ra logFC [1]: −0.8599; Map3k8 logFC [1]: −0.3558; Ackr3 logFC [2]: 0.2851; Atf3 logFC [2]: −1.514; Btg1 logFC [2]: −0.3745; Btg2 logFC [2]: −0.424; Ccl20 logFC [2]: −1.273; Ccnd1 logFC [2]: 0.453; Cdkn1a logFC [2]: 0.5583; Csf1 logFC [2]: −0.8332; Cxcl2 logFC [2]: −1.19; Dnajb4 logFC [2]: −0.3683; Edn1 logFC [2]: −1.006; Efna1 logFC [2]: 0.6938; Ehd1 logFC [2]: 0.2563; F3 logFC [2]: −0.4963; Fosl2 logFC [2]: −0.8662; Id2 logFC [2]: 0.1663; Ifit2 logFC [2]: −0.471; Il1b logFC [2]: −1.684; Jag1 logFC [2]: −0.4199; Klf2 logFC [2]: −0.4894; Klf4 logFC [2]: −0.5493; Map3k8 logFC [2]: −0.3558; Nfat5 logFC [2]: −0.3118; Nfkb1 logFC [2]: −0.3424; Nfkbia logFC [2]: −0.5525; Nr4a2 logFC [2]: −1.3802; Nr4a3 logFC [2]: −1.143; Per1 logFC [2]: −0.4162; Pfkfb3 logFC [2]: −1.166; Pnrcl logFC [2]: 0.2635; Rel logFC [2]: −0.7218; Rhob logFC [2]: −0.533; Serpine1 logFC [2]: −0.7169; Snn logFC [2]: 0.3517; Spsb1 logFC [2]: −0.6157; Tnfaip8 logFC [2]: 0.273; Traf1 logFC [2]: −0.5182; Trib1 logFC [2]: −0.6481; Zbtb10 logFC [2]: −0.2335; Hras logFC [3]: 0.1887; Map3k1 logFC [3]: −0.3825; Nfkb1 logFC [3]: −0.3424; Nfkbia logFC [3]: −0.5525; Pdgfb logFC [3]: −0.3414; Pdgfra logFC [3]: −0.51; Pik3cg logFC [3]: −0.5882; Pik3r1 logFC [3]: −0.4253; Pla2g4a logFC [3]: −0.6999; Tiam1 logFC [3]: −0.7456; Arid4a logFC [4]: −0.2777; Atrx logFC [4]: −0.2463; Bcar1 logFC [4]: 0.3379; Ccdc88a logFC [4]: −0.5602; Ccnd1 logFC [4]: 0.453; Cep192 logFC [4]: −0.4211; Cntrl logFC [4]: −0.289; Dmd logFC [4]: −0.3335; Epb41l2 logFC [4]: −0.4376; Fgd6 logFC [4]: −0.2369; Flna logFC [4]: −0.4162; Itsn1 logFC [4]: −0.2276; Kmt5a logFC [4]: 0.2601; Meis1 logFC [4]: −0.2507; Myh9 logFC [4]: −0.2093; Myh10 logFC [4]: −0.3068; Myo1e logFC [4]: −0.2349; Nin logFC [4]: −0.3393; Ophn1 logFC [4]: −0.4999; Rapgef5 logFC [4]: −0.2732; Rhot2 logFC [4]: 0.4727; Slc7a1 logFC [4]: −0.396; Slc12a2 logFC [4]: −0.2507; Slc38a1 logFC [4]: −0.4971; Smc3 logFC [4]: −0.2304; Sorbs2 logFC [4]: −0.3958; Tiam1 logFC [4]: −0.7456; Tuba4a logFC [4]: 0.2738; Vcl logFC [4]: −0.2001; Ythdc1 logFC [4]: −0.1936; Btg2 logFC [5]: −0.424; Ccl20 logFC [5]: −1.273; Cdkn1a logFC [5]: 0.5583; Chst2 logFC [5]: −0.5212; Csf1 logFC [5]: −0.8332; Edn1 logFC [5]: −1.006; Eif2ak2 logFC [5]: −0.272; F3 logFC [5]: −0.4963; Gabbr1 logFC [5]: −0.02473; Hpn logFC [5]: 0.4007; Il1b logFC [5]: −1.684; Il1r1 logFC [5]: −0.2988; Ly6e logFC [5]: 0.1666; Nfkb1 logFC [5]: −0.3424; Nfkbia logFC [5]: −0.5525; Rnf144b logFC [5]: −0.7108; Ros1 logFC [5]: −2.078; Serpine1 logFC [5]: −0.7169; Slc4a4 logFC [5]: 0.5123; Slc7a1 logFC [5]: −0.396; Slc7a2 logFC [5]: −0.8315; Slc11a2 logFC [5]: 0.3192; Ahnak logFC [6]: −0.5756; Akap12 logFC [6]: −0.2687; Akt3 logFC [6]: −0.3863; Aldob logFC [6]: 0.4194; Ankrd12 logFC [6]: −0.2824; C7 logFC [6]: −0.7767; Cald1 logFC [6]: −0.3719; Cblb logFC [6]: −0.082; Ebf1 logFC [6]: −0.3301; Epb41l2 logFC [6]: −0.4375; Ets1 logFC [6]: −0.2198; Fchsd2 logFC [6]: −0.2564; Frmd4a logFC [6]: −0.2838; Gata3 logFC [6]: −0.4822; Gpx3 logFC [6]: 0.6802; Igfbp7 logFC [6]: 0.2052; Lama2 logFC [6]: −0.2955; Maml2 logFC [6]: −0.2318; Meis1 logFC [6]: −0.2507; Myh9 logFC [6]: −0.2094; Myo1e logFC [6]: −0.2349; Nbea logFC [6]: −0.2819; Nfkbia logFC [6]: −0.5525; Piezo2 logFC [6]: −0.4078; Postn logFC [6]: −1.385; Pparg logFC [6]: −0.6129; Ppp1r12a logFC [6]: −0.1995; Prkg1 logFC [6]: −0.2187; Psd3 logFC [6]: −0.3544; Ptprm logFC [6]: −0.2614; Rapgef5 logFC [6]: −0.2732; Raph1 logFC [6]: −0.2965; Rbms3 logFC [6]: −0.5749; Robo1 logFC [6]: −0.4803; Stard13 logFC [6]: −0.7224; Tacc1 logFC [6]: −0.2449; Tcf4 logFC [6]: −0.2176; Tjp1 logFC [6]: −0.2489; Tns3 logFC [6]: −0.2638; Unc5c logFC [6]: 0.5618; Utrn logFC [6]: −0.49; Cntfr logFC [7]: −0.8574; Csf1 logFC [7]: −1.089; Il1r1 logFC [7]: −0.8263; Il2ra logFC [7]: −0.959; Map3k8 logFC [7]: −0.8222; Ackr3 logFC [8]: 0.4917; Atf3 logFC [8]: −2.107; Btg1 logFC [8]: −0.5187; Btg2 logFC [8]: −0.6974; Ccn1 logFC [8]: −1.087; Ccnd1 logFC [8]: 0.644; Cdkn1a logFC [8]: 0.2546; Csf1 logFC [8]: −1.089; Cxcl2 logFC [8]: −2.5772; Dnajb4 logFC [8]: −0.3548; Edn1 logFC [8]: −1.328; Efna1 logFC [8]: 0.286; Ehd1 logFC [8]: 0.2715; F3 logFC [8]: −0.5235; Fosl2 logFC [8]: −1.122; Gem logFC [8]: −1.237; Id2 logFC [8]: 0.2228; Ifit2 logFC [8]: −0.6323; Jag1 logFC [8]: −0.3939; Klf2 logFC [8]: −0.4816; Klf4 logFC [8]: −0.904; Map3k8 logFC [8]: −0.8222; Nfat5 logFC [8]: −0.323; Nfkb1 logFC [8]: −0.616; Nfkbia logFC [8]: −0.7041; Nr4a1 logFC [8]: −1.621; Nr4a2 logFC [8]: −1.111; Nr4a3 logFC [8]: −1.113; Per1 logFC [8]: −0.1216; Pfkfb3 logFC [8]: −1.125; Pnrcl logFC [8]: 0.04156; Rel logFC [8]: −1.0782; Rhob logFC [8]: −0.5419; Serpine1 logFC [8]: −1.501; Snn logFC [8]: 0.4753; Spsb1 logFC [8]: −0.654; Tnfaip8 logFC [8]: 0.4; Traf1 logFC [8]: −1.485; Trib1 logFC [8]: −0.7668; Zbtb10 logFC [8]: −0.2586; Hras logFC [9]: 0.06802; Map3k1 logFC [9]: −0.7203; Nfkb1 logFC [9]: −0.616; Nfkbia logFC [9]: −0.7041; Pdgfb logFC [9]: −0.8375; Pdgfra logFC [9]: −0.658; Pik3cg logFC [9]: −1.096; Pik3r1 logFC [9]: −0.4284; Pla2g4a logFC [9]: −0.8381; Tiam1 logFC [9]: −0.9494; Arid4a logFC [10]: −0.196; Atrx logFC [10]: −0.2188; Bcar1 logFC [10]: 0.346; Ccdc88a logFC [10]: −0.6374; Ccnd1 logFC [10]: 0.644; Cep192 logFC [10]: −0.4173; Cntrl logFC [10]: −0.3963; Dmd logFC [10]: −0.3485; Epb41l2 logFC [10]: −0.6149; Fgd6 logFC [10]: −0.3419; Flna logFC [10]: −0.7842; Itsn1 logFC [10]: −0.2752; Kmt5a logFC [10]: 0.2873; Meis1 logFC [10]: −0.3593; Myh9 logFC [10]: −0.4543; Myh10 logFC [10]: −0.1801; Myo1e logFC [10]: −0.292; Nin logFC [10]: −0.4236; Ophn1 logFC [10]: −0.7587
